Measurements as given in patent publication US20110294794A1, “TREATMENT OF PROTEINOPATHIES USING A FARNESYL TRANSFERASE INHIBITOR” (Link Medicine Corporation, priority 2008, published 2011).
Entries after “also recorded” stand apart in the source; their conditions may differ.

What was measured:
Ras = assay: Soluble/cytoplasmic Ras level in frontal cortex of alpha-synuclein transgenic mice (immunoblot); format: in vivo, mouse; settings: 0.09 mg/kg or 9 mg/kg b.i.d., 3 months
Method: The level of inhibition of Ras in brain by LNK-754-TS, dosed at an efficacious dose for efficacy in animal models of proteinopathy-dependent neurodegeneration, was investigated. Alpha-synuclein transgenic mice were treated for 3 months b.i.d. with vehicle or LNK-754-TS at 0.09 mg/kg or 9 mg/kg. Cortical tissue was extracted and homogenized, followed by isolation of soluble/cytosolic proteins in detergent-free buffer (50 mM Tris-HCl pH 7.4, 140 mM NaCl, 2 mM EDTA, Protease inhibitor cocktail) by centrifugation. 15 micrograms of protein lysate was analyzed per lane of SDS-PAGE gel, and immunoblotted for Ras and actin (FIG. 6). Densitometry was used to quantify the Ras/actin ratio for each sample, and results were plotted (FIG. 7). […] This contrasts with what is observed in xenograft cancer models, where inhibition of Ras farnesylation by high dose FTIs is directly correlated with efficacy (FIG. 3 and Example 3).

LC3 mRNA = LC3 mRNA (qPCR) in differentiated SH-SY5Y cells; format: cell-based, human
Method: Cell culture and immunocytochemistry: SH-SY5Y cells were grown in DMEM medium supplemented with 10% FBS and 1% pen/strep at 37° C. and 5% CO2. Cells were differentiated with 10 μM retinoic acid for 48 hr, then treated with the either rapamycin (100 nM or 1 μM) or with 100 nM of either LNK-754-TS or Tipifarnib for 48-72 hr. Cells were then fixed with 4% paraformaldehyde and stained for LC3 (Novus biological, NB100-2331, dilution 1:800) followed by secondary Alexa-564 anti-Rabbit (A-11011).
(§1) Quantitative real-time PCR: Gene expression profiles were done by qPCR on series of known autophagy genes. RNA was extracted with Tri-reagent (Sigma), and cDNAs generated using iScript (Biorad). qPCR analysis was carried out in a 96 well plate using an iCycler (BioRad, Hercules, Calif.), and iQ SYBR Green Supermix (Biorad) according to the manufacturer's specifications.
Such increases in LC3 mRNA levels are associated in the literature with stimulation of macroautophagy. This supports the hypothesis that at doses as low as 1 nM in this in vitro system there is stimulation of autophagy in these cells.
Autophagy was measured in a neuroblastoma cell culture system by three distinct approaches: quantitation of autophagy-related mRNA's, immunofluorescence microscopy of autophagosomes, and biochemical detection of the microtubule-associated protein 1 light chain 3 (LC3) a key protein that is required for autophagosome formation. Differentiated human neuroblastoma cells (SH-SY5Y) were treated for 72 hr with LNK-754-TS (0.01-100 nM), Zarnestra® (also referred to herein as tipifarnib) (100 nM) or rapamycin (1 μM).

[1] = test system: 3T3 H-ras (61L) xenograft tumor; settings: continuous infusion, cited from earlier work
p62 mRNA = p62 mRNA in SH-SY5Y cells; format: cell-based, human; settings: 100 nM (FIG. 8e)
Method: as §1

## C#Cc1cccc(-c2cc(=O)n(C)c3ccc([C@](O)(c4ccc(Cl)cc4)c4cncn4C)cc23)c1 [LNK-754-TS, (R)-6-[(4-chlorophenyl)-hydroxyl-(1-methyl-1-H-imidazol-5-yl)-methyl]-4-(3-ethynylphenyl)-1-methyl-2-(1H)-quinonlinone (2S,3S)-dihydroxybutanedioate]
Ras
  effect on Ras farnesylation in brain: no significant effect
  soluble Ras/actin level in cortex vs. vehicle: No significant differences
LC3 mRNA; 0.01-100 nM, 72 hr (FIG. 8a)
  LC3 mRNA level: upregulated; also recorded: increased
LC3 mRNA; 72 hr, vs. Zarnestra and rapamycin
  potency of LC3 transcript upregulation relative to the other two compounds: most potently
LC3 mRNA; doses between 1 and 100 nM, 72 hours (FIG. 4)
  levels of mRNA of LC3: significant increases
[1]; 7 day treatment
  continuous serum level at which significant inhibition of tumor growth was seen: above 100 ng/mL
[1]; tumor tissue
  inhibition of Ras farnesylation at which significant inhibition of tumor growth was seen: ≥ 50%
p62 mRNA
  p62 mRNA: upregulation; also recorded: increased
